Consider four compounds from PMC8877721 (Journal of medicinal chemistry, 2021).

For data set [1] the following is noted: PAMPA assay; cited from earlier work.
Data set [2] addresses T1, DNA polymerase γ (catalytic domain) (Homo sapiens, UniProt P54098).
T1 sequence (P54098 1-1239): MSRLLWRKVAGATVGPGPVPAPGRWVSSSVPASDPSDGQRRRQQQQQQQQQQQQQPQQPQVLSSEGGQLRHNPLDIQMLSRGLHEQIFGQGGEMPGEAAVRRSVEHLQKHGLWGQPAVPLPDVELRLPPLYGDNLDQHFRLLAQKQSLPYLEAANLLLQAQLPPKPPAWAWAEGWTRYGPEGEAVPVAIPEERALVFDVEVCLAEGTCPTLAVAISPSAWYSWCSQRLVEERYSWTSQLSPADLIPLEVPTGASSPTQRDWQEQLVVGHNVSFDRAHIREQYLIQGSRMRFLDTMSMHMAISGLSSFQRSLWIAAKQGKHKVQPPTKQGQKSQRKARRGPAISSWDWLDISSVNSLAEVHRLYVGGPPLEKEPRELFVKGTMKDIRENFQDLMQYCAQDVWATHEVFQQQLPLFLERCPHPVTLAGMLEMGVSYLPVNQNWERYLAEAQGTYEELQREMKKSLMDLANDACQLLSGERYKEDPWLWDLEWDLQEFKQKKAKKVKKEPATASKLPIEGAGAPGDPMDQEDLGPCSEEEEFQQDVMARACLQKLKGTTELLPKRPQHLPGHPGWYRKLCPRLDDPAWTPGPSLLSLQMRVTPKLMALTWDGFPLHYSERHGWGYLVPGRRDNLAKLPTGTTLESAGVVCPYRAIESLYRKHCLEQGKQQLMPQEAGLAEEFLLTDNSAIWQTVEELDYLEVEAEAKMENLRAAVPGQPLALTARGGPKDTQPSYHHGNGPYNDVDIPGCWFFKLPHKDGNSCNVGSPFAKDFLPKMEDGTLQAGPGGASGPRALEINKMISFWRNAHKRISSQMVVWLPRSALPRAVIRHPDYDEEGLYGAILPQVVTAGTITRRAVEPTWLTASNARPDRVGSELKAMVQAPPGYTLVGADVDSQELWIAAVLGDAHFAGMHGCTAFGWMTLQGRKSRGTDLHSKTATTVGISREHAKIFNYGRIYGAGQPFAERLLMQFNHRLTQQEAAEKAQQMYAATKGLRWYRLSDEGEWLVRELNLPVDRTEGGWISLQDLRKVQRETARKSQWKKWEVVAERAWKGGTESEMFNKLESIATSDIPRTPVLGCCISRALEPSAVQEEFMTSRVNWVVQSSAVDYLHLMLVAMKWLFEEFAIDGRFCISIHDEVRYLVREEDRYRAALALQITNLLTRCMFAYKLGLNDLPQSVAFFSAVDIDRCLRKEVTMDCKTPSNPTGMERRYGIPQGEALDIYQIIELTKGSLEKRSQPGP
The experiment in a line: Enzymatic incorporation of ddhCTP by DNA polymerase gamma. The data set is classed as biochemical. Particulars: 100 μM nucleotide, 0, 10 or 20 min, gel electrophoresis.

Another data set deals with ZIKV NS5 RdRp (Zika virus, UniProt A0A024B7W1). The data set is described as follows: ZIKV RdRp-catalyzed nucleotide incorporation. Format: biochemical. As to conditions: synthetic ddhCTP.
Sequence of ZIKV NS5 RdRp (A0A024B7W1 2521-3423): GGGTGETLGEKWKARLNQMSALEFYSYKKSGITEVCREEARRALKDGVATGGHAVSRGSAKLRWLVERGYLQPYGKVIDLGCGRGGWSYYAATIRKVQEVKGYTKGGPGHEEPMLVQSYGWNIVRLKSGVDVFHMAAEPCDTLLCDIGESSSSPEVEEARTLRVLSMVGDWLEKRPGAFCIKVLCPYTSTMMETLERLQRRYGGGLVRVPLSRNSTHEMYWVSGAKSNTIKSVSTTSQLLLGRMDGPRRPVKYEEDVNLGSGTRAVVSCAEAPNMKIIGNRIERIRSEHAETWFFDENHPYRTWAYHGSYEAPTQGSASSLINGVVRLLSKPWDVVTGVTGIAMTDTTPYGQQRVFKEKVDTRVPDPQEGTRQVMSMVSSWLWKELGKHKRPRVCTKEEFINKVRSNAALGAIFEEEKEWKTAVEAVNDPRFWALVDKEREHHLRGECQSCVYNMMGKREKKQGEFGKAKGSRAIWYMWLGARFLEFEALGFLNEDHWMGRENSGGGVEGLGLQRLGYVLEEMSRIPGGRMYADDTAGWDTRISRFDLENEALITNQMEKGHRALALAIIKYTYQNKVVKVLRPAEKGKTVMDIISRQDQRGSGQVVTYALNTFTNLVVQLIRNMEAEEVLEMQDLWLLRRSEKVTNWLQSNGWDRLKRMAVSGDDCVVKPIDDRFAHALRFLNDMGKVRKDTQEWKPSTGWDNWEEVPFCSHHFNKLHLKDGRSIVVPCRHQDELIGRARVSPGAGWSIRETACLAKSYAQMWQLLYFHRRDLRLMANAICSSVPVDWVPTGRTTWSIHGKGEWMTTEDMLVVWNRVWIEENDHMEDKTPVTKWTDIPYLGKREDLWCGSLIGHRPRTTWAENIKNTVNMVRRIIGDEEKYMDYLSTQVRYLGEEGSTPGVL
Data set [3] relates to ZIKV (strain PRABC59). The data set is described as follows: Antiviral plaque assay, ZIKV. Format: cell-based, Zika virus. Particulars: for reduction in ZIKV virus levels: 0.1 mM dose, MOI 0.1, plaque titration 4 days post-infection.
Another data set has as its system WNV. The experiment in a line: Antiviral plaque assay, WNV. Format: cell-based, West Nile virus. As to conditions: MOI 0.1, 3 days post-infection.
A further data set relates to Vero cells. The experiment in a line: Alamar Blue cell viability assay, Vero cells. Format: cell-based. Particulars: 2 days in culture. Background: The colour change of resazurin is a common sign of viable cells or microbes.
Data set [4] deals with HUH7 cells. The experiment in a line: Alamar Blue cell viability assay, HUH7 cells. The data set is classed as cell-based, human. Particulars: 2 days in culture.
Data set [5] deals with HUH7 cells. The experiment in a line: In cellulo metabolism of 1 and ddhC to ddhCTP in HUH7 cells. Format: cell-based, human. Particulars: 100 μM.
Data set [6] deals with ZIKV (strain PRABC59). As to conditions: 1 mM ddhC over 24 h; cited from earlier work.
The next data set relates to HEK293 cells. Particulars: HEK293 cells exposed to ddhC, after 48 h; cited from earlier work.

SMILES strings stand for the structures. Some results are limits rather than exact numbers.

In the case of `CC(C)OC(=O)[C@H](C)N[P@](=O)(OC[C@H]1O[C@@H](n2ccc(=O)[nH]c2=O)[C@](C)(F)[C@@H]1O)Oc1ccccc1` [sofosbuvir], in data set [1], the apparent permeability coefficient (Papp) (in general, the rate of passage across a membrane or cell layer, normalised by area and donor concentration) is 0.046 ×10⁻⁶ cm/s.
Consider `Nc1ccn([C@@H]2OC(COP(=O)(O)OP(=O)(O)OP(=O)(O)O)=C[C@H]2O)c(=O)n1` [ddhCTP, 3’-Deoxy-3’,4’-didehydrocytidine-5’-triphosphate], for which the “substrate for DNA polymerase γ (in words)” value in [2] was “not a substrate”. The “mode of action in primer extension assay (in words)” value on ZIKV NS5 RdRp is listed as “obligate chain terminator”.
For `CC(C)OC(=O)[C@H](C)NP(=O)(OCC1=C[C@@H](O)[C@H](n2ccc(N)nc2=O)O1)Oc1ccccc1` (stereo in doubt) [compound 1, Isopropyl ((S)-(((4R,5R)-5-(4-amino-2-oxopyrimidin-1(2H)-yl)-4-hydroxy-4,5-dihydrofuran-2-yl)methoxy)(phenoxy)phosphoryl)-L-alaninate], the “reduction in ZIKV virus levels” value with ZIKV (strain PRABC59) [3] (HUH7 cells) and in the data set on ZIKV (strain PRABC59) [3] (HUH7.5 cells) was > 1 log10 pfu/mL throughout. In the data set on ZIKV (strain PRABC59) [3] (Vero cells, MOI 0.1, 4 days post-infection, compared with HUH7 and HUH7.5), the “activity against ZIKV in Vero cells (in words)” value is given as “weaker activity”. The “reduction of WNV levels” value in the data set on WNV (HUH7 cells) and in the data set on WNV (HUH7.5 cells) was > 4 log10 pfu/mL each time. Further, in the data set on WNV (Vero cells), the “activity against WNV (in words)” value was “inactive”. Also, the “cytotoxicity (in words)” value in the data set on Vero cells and with HUH7 cells [4] was “neither ddhC nor 1 were cytotoxic” in each case. Besides, in the data set on HUH7 cells [5], the “dosed compound in HUH7 lysate 24 h following dosage (cell permeable)” value is “detected”.
Take `Nc1ccn([C@@H]2OC(CO)=C[C@H]2O)c(=O)n1` [ddhC, 3’-deoxy-3’,4’-didehydro-cytidine]: the “activity against WNV (in words)” value in the data set with WNV (HUH7 cells), in the data set with WNV (HUH7.5 cells) and in the data set on WNV (Vero cells) was “ineffective” throughout. Further, the “cytotoxicity (in words)” value with Vero cells and with HUH7 cells [4] was “neither ddhC nor 1 were cytotoxic” in each case. The “dosed compound in HUH7 lysate 24 h following dosage (cell permeable)” value with HUH7 cells [5] was “detected”. Moreover, the “reduction of ZIKV levels in infected Vero cells” value in the data set on ZIKV (strain PRABC59) [6] was 50-200 x. Also, the ddhCTP produced in the data set with HEK293 cells is ~ 100 μM.
